Results reported in PMC2943038 (Chemical communications (Cambridge, England), 2010).
Like-named read-outs stand apart in the source and are kept apart here.

Columns and labels:
PAD4 [1] = target: T1, PAD4 (Homo sapiens, UniProt Q9UM07); experiment: PAD4 inhibition/inactivation, residual activity measured with BAEE; type: biochemical
PAD4 [2] = target: T1, PAD4; experiment: gel-based ABPP secondary screen
PAD4 [3] = target: T1, PAD4; experiment: fluopol-ABPP HTS
PAD3 = target: T2, PAD3 (Homo sapiens, UniProt Q9ULW8); experiment: biochemical
T2 sequence (Q9ULW8 1-664): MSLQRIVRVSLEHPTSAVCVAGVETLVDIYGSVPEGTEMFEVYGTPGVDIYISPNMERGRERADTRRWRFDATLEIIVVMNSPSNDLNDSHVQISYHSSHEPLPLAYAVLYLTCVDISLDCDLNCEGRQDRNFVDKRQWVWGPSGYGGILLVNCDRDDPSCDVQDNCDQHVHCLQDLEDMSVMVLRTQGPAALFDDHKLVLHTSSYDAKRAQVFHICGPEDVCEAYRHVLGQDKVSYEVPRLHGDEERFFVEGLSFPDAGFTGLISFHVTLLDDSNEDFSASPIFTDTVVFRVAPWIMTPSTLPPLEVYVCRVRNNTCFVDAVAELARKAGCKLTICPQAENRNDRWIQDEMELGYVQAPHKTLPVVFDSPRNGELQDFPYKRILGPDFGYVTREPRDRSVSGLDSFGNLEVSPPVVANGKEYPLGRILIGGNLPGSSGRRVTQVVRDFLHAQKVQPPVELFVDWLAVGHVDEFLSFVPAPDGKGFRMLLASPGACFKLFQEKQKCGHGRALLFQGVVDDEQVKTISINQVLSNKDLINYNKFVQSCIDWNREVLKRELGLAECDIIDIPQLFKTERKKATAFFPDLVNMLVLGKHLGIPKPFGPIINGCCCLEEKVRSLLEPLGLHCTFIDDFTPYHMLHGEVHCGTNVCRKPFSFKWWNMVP

PAD1 = target: T3, PAD1 (Homo sapiens, UniProt Q9ULC6); experiment: PAD1 inhibition/inactivation, residual activity measured with BAEE
T3 sequence (Q9ULC6 1-663): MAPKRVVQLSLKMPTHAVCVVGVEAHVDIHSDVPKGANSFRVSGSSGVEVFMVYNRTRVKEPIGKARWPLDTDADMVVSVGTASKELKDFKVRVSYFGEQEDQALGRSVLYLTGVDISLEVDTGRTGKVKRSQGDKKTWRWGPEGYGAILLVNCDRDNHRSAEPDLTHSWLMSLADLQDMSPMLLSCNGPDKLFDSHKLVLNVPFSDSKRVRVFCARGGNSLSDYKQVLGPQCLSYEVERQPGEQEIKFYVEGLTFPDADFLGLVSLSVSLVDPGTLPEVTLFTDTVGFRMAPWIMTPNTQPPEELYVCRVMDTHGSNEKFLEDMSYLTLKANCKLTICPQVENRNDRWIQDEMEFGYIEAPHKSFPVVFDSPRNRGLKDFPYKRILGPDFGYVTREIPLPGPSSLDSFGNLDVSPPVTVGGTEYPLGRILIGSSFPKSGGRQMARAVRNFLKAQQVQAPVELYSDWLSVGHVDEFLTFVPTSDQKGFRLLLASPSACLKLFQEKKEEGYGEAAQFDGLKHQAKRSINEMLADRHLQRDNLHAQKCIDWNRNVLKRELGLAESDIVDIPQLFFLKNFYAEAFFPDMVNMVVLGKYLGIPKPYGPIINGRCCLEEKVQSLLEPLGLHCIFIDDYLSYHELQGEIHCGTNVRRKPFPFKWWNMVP

PAD2 [4] = target: T4, PAD2 (Homo sapiens, UniProt Q9Y2J8); details: PAD4 over PAD2, relative values of kinact/KI
MCF-7 cells = experiment: histone H3 citrullination Western blot in MCF-7 cells; type: cell-based; details: MCF7 cells; anti-citrulline histone H3 Western blot; 1, 10, or 100 nM, dose dependent
HL-60 granulocytes = experiment: histone H3 citrullination Western blot in HL-60 granulocytes; type: cell-based; details: anti-citrulline histone H3 Western blot, 1, 10, or 100 nM, dose dependent
PAD2 [5] = target: T4, PAD2; experiment: biochemical

T1 sequence (Q9UM07 whole entry): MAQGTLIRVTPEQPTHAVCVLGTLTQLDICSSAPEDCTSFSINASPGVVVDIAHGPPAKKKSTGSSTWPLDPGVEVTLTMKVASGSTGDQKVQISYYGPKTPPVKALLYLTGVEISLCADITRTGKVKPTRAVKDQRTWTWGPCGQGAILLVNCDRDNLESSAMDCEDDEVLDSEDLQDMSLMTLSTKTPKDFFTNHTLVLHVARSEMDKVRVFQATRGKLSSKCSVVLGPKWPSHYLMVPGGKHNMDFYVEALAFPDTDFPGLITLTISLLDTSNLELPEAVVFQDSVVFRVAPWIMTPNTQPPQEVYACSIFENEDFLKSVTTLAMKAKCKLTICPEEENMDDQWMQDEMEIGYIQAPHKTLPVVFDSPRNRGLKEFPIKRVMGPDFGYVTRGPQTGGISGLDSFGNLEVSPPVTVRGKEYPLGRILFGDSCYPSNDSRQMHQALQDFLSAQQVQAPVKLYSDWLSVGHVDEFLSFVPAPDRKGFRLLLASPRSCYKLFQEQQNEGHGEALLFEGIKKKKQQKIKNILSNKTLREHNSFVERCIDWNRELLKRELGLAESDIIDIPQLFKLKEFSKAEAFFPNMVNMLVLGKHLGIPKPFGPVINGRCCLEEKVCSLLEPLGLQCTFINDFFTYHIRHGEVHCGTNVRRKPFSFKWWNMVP
T4 sequence (Q9Y2J8 whole entry): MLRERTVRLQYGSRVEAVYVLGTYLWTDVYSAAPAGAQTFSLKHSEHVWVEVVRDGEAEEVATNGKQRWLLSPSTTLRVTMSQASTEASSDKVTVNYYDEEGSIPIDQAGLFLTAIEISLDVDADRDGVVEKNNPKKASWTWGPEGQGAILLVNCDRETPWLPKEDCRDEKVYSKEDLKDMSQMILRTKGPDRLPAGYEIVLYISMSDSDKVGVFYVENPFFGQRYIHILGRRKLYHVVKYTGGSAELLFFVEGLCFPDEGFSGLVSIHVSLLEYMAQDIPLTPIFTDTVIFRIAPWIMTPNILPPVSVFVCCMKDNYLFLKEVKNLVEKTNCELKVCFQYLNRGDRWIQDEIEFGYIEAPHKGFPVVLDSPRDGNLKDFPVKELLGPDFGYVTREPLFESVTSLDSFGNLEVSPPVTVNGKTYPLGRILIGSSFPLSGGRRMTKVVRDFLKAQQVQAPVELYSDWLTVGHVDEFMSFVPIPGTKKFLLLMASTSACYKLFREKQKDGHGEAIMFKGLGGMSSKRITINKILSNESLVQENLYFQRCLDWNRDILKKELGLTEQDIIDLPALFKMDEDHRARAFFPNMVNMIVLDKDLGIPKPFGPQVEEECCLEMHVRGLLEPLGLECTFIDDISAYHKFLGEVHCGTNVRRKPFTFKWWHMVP

SMILES | IC50 (PAD4 [1]; read-out: IC50 for PAD4, Table 1, hits of the HTS) [µM] | % Inhibition (Gel based ABPP) (PAD4 [2]; 10 μM final, inhibition of RFA labeling of PAD4) [%] | % Inhibition (library screen) (PAD4 [3]; 5 μM compound final, 2 μM PAD4, 75 nM RFA, 300 min) [%] | IC50 (PAD4 [1]) [µM] | Ki (PAD4 [1]) [µM] | PAD4 activity recovered after dialysis (reversibility) (PAD4 [1]; incubated with PAD4 for 30 min, dialyzed overnight (~20 h)) | Ki (PAD3) [µM] | Ki (PAD1) [µM] | Fold selectivity (PAD2 [4]) [fold] | inhibition at 10 µM (PAD4 [2]; read-out: % Inhibition (Gel based ABPP)) [%] | concentration that reduced levels of citrullinated histone H3 (MCF-7 cells) [nM] | concentration that reduced levels of citrullinated histone H3 (HL-60 granulocytes) [nM] | Ki (PAD2 [5]) [µM] | inhibition at 5 µM (PAD4 [3]; read-out: % Inhibition (library screen)) [%]
Cc1ccc(S(=O)(=O)N[C@@H](Cc2ccccc2)C(=O)CCl)cc1 [NIH5, tosyl phenylalanyl chloromethyl ketone] | 13 ± 2 | 12.9 | 39.7 | – | – | – | – | – | – | – | – | – | – | –
COC1=C(N)C(=O)c2nc(-c3nc(C(=O)O)c(C)c(-c4ccc(OC)c(OC)c4O)c3N)ccc2C1=O [NIH6, streptonigrin] | – | – | – | 1.87 ± 0.24 | 8.5 ± 4.3 | no PAD4 activity was recovered | 49 ± 34 | 11 ± 7 | 37 | 93.9 | ≤ 1 | ≤ 1 | 17 ± 5.8 | 92.5
